# Read-outs that look alike come from different tables or passages of the source.
# How the values were obtained:
# PSMA = target: T1, PSMA (Rattus norvegicus, UniProt P70627); experiment: in vitro autoradiography competition assay on rat brain slices against [^111In]In-PSMA-617; type: binding
# T1 construct: tissue Taconic Biosciences (rats); host or cells: rat brain, sagittal slices containing midbrain
# Experimental: This method provided [^111In]-PSMA-617 in >95% radiochemical yield, as determined by reverse-phase HPLC.
# Rat brain slices were obtained from female Sprague-Dawley rats (weight~250g; Taconic Biosciences). The rats were sacrificed by decapitation, brains were extracted, frozen at -80 °C and stored at the same temperature. To prepare slices for autoradiography, brains were cut into halves along the sagittal symmetry plane. Each half was mounted, lateral side up, on the cryostat sample holder pretreated by Tissue-Tek OCT compound and fixed by freezing in the cryostat. […]
# For competition assay, the slides were incubated with 2 nM [^111In]In-PSMA-617 and increasing concentrations (0.1-30 nM) of investigated PSMA derivatives for the same amount of time in the same assay buffer. Non-specific binding was determined by adding 5 µM 2-(phosphonomethyl)pentanedioic acid (PMPA) to [^111In]In-PSMA-617 solutions. […]
# The screens were then read by a Cyclone Plus storage phosphor system (Packard Instruments Co). Quantification of readings was done with Optiquant software (version 3.00, Packard Instruments Co). Namely, elliptic regions of interest (ROIs) encompassing the midbrain and cerebellar nuclei were drawn inside the brain slice images, while circular ROIs were drawn around calibration curve spots, and average exposure was calculated for both ROI categories. […]
# LNCaP cells = experiment: internalization assay (surface binding and internalization, with and without 2-PMPA block); type: cell-based; details: for Cell surface / Internalized: n = 4; for Cell surface blocked / Internalized blocked: with 2-PMPA 500 µM/well
# Experimental: Poly-L-Lysine (300 µL of a 0.01% w/v in H2O) is added to each well of a 24-well plate (Greiner Bio). The plate is left at room temperature for 20-30 minutes. Afterwards, the poly-L-lysine solution is removed, and the wells washed with 500 µL of PBS. Afterwards, 1 mL of LNCaP cells suspension is placed in each well to obtain 10^5 cells/well. The 24-well plates are left in the incubator overnight until the start of the internalisation experiment. Subsequently, the previously plated cells were incubated at 37 °C with the selected ^18 F-labelled PSMA derivative in 250 µL growth medium for 45 min (c = 32 nM). For the determination of specific uptake, 2-PMPA was added into half of the wells in an excess concentration of 500 µM/well. After incubation, cellular uptake was interrupted by removing the medium and washing the cells with ice-cold PBS (3 × 1 mL). The surface bound radioactivity was removed by washing with 50 mM glycine (pH 2.8, 2 × 500 µL). Finally, the internalized fraction was determined by lysis of the cells with 0.3 M NaOH (1 × 500 µL). Fractions collected from the surface bound activity and lysates were collected and measured in a gamma counter. All counts were normalized to the starting activity and specific surface binding as well as specific internalization were determined by subtracting the non-specific binding obtained from the wells treated with 2-PMPA. Results were calculated and expressed as %AA/10^5 cells (% applied activity/105 cells, n = 4). [^68Ga]-PSMA617 was selected as a reference to compare internalization values. The experiment was conducted two times on different compounds. PSMA-617 was used as a reference and internal control for both experiments. […] The higher internalization could have a big impact on the therapeutic effect of such molecules.
# [1] = in vivo PET imaging in rats of [^18F]-labeled PSMA derivatives; details: healthy rats, i.v., 90-min PET acquisition (Figure 15)
# Experimental: Long-Evans female rats weighing 200 - 300 g (Charles River, Calco, Italy), were housed in a cage of 2-3 rats per cage and kept in a climate-controlled facility with a 12-hr light/dark cycle. The cages had environmental enrichment (nest box, biting stick). All rats were fed ad libitum with commercial breeding diet (1310 FORTI-Avlsfoder, Brogaarden, Altromin International) and had free access to water. All the experiments were performed in accordance with the European Commission's Directive 2010/63/EU, FELASA and ARRIVE guidelines for animal research and, with approval from The Danish Council for Animal Ethics (license numbers 2017-15-0201-01283 and 2017-15-0201-01375) together with the Department of Experimental Medicine, University of Copenhagen.
# The scans were performed on the Siemens HRRT (High-Resolution Research Tomography) (CPS Innovations/Siemens, Malvern, PA, USA). On the day of experiment, the rats were weighed and then transported to the scanner at least 2 h before the scan. Anesthesia was induced using 3% isoflurane in oxygen flow. All rats were placed in a 2 × 2 custom made rat holder, enabling simultaneous scanning of four rats 17-19. While in the custom-made rat holder, the rats were kept under anesthesia with a constant flow of isoflurane (-2% isoflurane in oxygen). […]
# [2] = first experiment, LNCaP, 37 °C, 45 min, c = 32 nM
# [3] = second experiment ([^68Ga] compounds), LNCaP, 37 °C, 45 min, c = 32 nM
# [4] = second experiment ([^68Ga] compounds)
# T1 sequence (P70627 whole entry): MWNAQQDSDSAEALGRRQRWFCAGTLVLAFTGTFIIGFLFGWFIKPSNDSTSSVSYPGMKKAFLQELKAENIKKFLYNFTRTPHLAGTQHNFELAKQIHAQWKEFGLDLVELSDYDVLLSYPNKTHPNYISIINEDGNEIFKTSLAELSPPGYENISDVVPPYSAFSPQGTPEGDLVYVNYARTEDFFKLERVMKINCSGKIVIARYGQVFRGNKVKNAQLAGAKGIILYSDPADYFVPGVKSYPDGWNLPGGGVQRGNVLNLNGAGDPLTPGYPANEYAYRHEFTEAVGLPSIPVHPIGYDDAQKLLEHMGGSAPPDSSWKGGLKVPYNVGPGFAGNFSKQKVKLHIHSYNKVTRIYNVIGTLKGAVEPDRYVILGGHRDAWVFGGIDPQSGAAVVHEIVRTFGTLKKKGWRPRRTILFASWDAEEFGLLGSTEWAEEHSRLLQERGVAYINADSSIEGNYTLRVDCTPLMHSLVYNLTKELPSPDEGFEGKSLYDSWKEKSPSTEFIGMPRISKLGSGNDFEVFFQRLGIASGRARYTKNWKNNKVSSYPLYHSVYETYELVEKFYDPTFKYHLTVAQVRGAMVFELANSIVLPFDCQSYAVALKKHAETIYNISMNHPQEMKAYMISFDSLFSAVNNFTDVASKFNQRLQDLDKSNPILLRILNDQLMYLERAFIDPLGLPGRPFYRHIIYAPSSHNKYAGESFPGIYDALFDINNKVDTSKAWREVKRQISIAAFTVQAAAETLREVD
compound,measurement,setting,value
"N=C(N)NCCCC(NC(=O)CN1C(=O)c2cc3nc4c(nc3cc2C1=O)CCc1c(cnnc1-c1ccc(OCC[18F])cc1)CC4)C(=O)NC(CCCNC(=N)N)C(=O)NC(CCCNC(=N)N)C(=O)NCC1CCC(C(=O)NC(Cc2ccc3ccccc3c2)C(=O)NCCCCC(NC(=O)NC(CCC(=O)O)C(=O)O)C(=O)O)CC1 (centres unmarked) [[^18F]40, PSMA-3Arg-NH-T4CO-FTz]",Ki,"PSMA; read-out: Affinity (Ki), competition with 2 nM [^111In]In-PSMA-617, 1.5 h, Ki from IC50 by Cheng-Prusoff, mean ± SD, number of determinations in parentheses",47.5 nM
same,Cell surface,LNCaP cells; [2],5.15 ± 0.87 %AA/10^5 cells
same,Internalized,LNCaP cells; [2],4.53 ± 0.55 %AA/10^5 cells
same,Cell surface blocked,LNCaP cells; [2],4.70 ± 1.05 %AA/10^5 cells
same,Internalized blocked,LNCaP cells; [2],4.10 ± 0.65 %AA/10^5 cells
"N=C(N)NCCCC(NC(=O)CN1C(=O)c2cc3nc4c(nc3cc2C1=O)CCc1c(cnnc1-c1ccc(OCC[18F])cc1)CC4)C(=O)NC(CCC(=O)O)C(=O)NC(CCCNC(=N)N)C(=O)NC(CCC(=O)O)C(=O)NC(CCCNC(=N)N)C(=O)NC(CCC(=O)O)C(=O)NCC1CCC(C(=O)NC(Cc2ccc3ccccc3c2)C(=O)NCCCCC(NC(=O)NC(CCC(=O)O)C(=O)O)C(=O)O)CC1 (centres unmarked) [[^18F]30, PSMA-NH-AAAAAA-T4CO-FTz]",Ki,"PSMA; competition with 2 nM [^111In]In-PSMA-617, 1.5 h, Ki from IC50 by Cheng-Prusoff, mean ± SD, number of determinations in parentheses, read-out: Affinity (Ki)",3.1 ± 0.28 nM
same,Cell surface,LNCaP cells; [2],0.64 ± 0.10 %AA/10^5 cells
same,Internalized,LNCaP cells; [2],0.54 ± 0.06 %AA/10^5 cells
same,Cell surface blocked,LNCaP cells; [2],0.08 ± 0.01 %AA/10^5 cells
same,Internalized blocked,LNCaP cells; [2],0.07 ± 0.01 %AA/10^5 cells
"O=C(O)CC[C@H](NC(=O)N[C@@H](CCCCNC(=O)[C@H](Cc1ccc2ccccc2c1)NC(=O)[C@H]1CC[C@H](CNC(=O)CN2CCN(CC(=O)O)CCN(CC(=O)O)CCN(CC(=O)O)CC2)CC1)C(=O)O)C(=O)O [[^68Ga]-PSMA-617, vipivotide tetraxetan, metal not drawn, reference compound]",Cell surface,LNCaP cells; [2],0.36 ± 0.03 %AA/10^5 cells
same,Internalized,LNCaP cells; [2],0.27± 002 %AA/10^5 cells
same,Cell surface blocked,LNCaP cells; [2],0.03± 0.01 %AA/10^5 cells
same,Internalized blocked,LNCaP cells; [2],0.03 ± 0.01 %AA/10^5 cells
same,Cell surface,LNCaP cells; [3],0.36 ± 0.03 %AA/10^5 cells
same,Internalized,LNCaP cells; [3],0.13± 001 %AA/10^5 cells
same,Cell surface blocked,LNCaP cells; [4],0.03± 0.01 %AA/10^5 cells
same,Internalized blocked,LNCaP cells; [4],0.02 ± 0.01 %AA/10^5 cells
"O=C(O)CC[C@H](NC(=O)N[C@@H](CCCCNC(=O)[C@H](Cc1ccc2ccccc2c1)NC(=O)[C@H]1CC[C@H](CNC(=O)CN2C(=O)c3cc4nc5c(nc4cc3C2=O)CCc2c(cnnc2-c2ccc(OCCF)cc2)CC5)CC1)C(=O)O)C(=O)O [[^18F]16, PSMA-NH-T4CO-FTz]",Cell surface,LNCaP cells; [2],0.36 ± 0.03 %AA/10^5 cells
same,Internalized,LNCaP cells; [2],1.98 ±0.17 %AA/10^5 cells
same,Cell surface blocked,LNCaP cells; [2],0.09 ± 0.01 %AA/10^5 cells
same,Internalized blocked,LNCaP cells; [2],0.78 ± 0.11 %AA/10^5 cells
same,excretion route,[1],excreted mainly through the liver
